Patent publication US20220152154A1, “GROWTH DIFFERENTIATION FACTOR 15 COMBINATION THERAPY” (Amgen Inc., priority 2019, published 2022)

Tests used:
[1] = Body weight change in DIO mice treated for 5 weeks; type: in vivo; design: key to Significance of Body Weight Change: ns: not significant; *: p < 0.05; **: p < 0.005; ***: p < 0.001; ****: p < 0.0001; conditions: subcutaneous; for Significance of Body Weight Change: male C57Bl/6 DIO mice, 2-way ANOVA with Dunnett's analysis
Method: (§1) Male C57Bl/6 DIO mice, 19-20 weeks old (13-14 weeks on high fat diet) at beginning of dosing, were placed into the following treatment groups: Group A—Vehicle, in which the animals were administered vehicle weekly; Group B—Dulaglutide, in which the animals were administered 0.1 mg/kg (2 nmol/kg) of dulaglutide twice per week; Group C—GIPR Ab, in which the animals were administered 5 mg/kg (33 nmol/kg) of antibody 2.63.1 (having a light and heavy chain sequence of SEQ ID NOs: 105 and 106, respectively) weekly and vehicle weekly (the latter being on the alternate dulaglutide dosing day); Group D—GDF15, in which the animals were administered 0.125 mg/kg (1 nmol/kg) of FcΔ10(−)-(G4S)4-GDF15 (SEQ ID NO: 39) (along with its heterodimerization partner, FcΔ10(+,K) (SEQ ID NO: 32)) weekly and vehicle weekly (the latter on the alternate dulaglutide dosing day); Group E—GDF15+Dulaglutide, in which the animals were administered 0.125 mg/kg (1 nmol/kg) of FcΔ10(−)-(G4S)4-GDF15) (along with its heterodimerization partner, FcΔ10(+,K)) weekly and 0.1 mg/kg (2 nmol/kg) of dulaglutide twice per week; Group F—GDF15+GIPR Ab, in which the animals were administered 0.125 mg/kg (1 nmol/kg) of FcΔ10(−)-(G4S)4-GDF15 (along with its heterodimerization partner, FcΔ10(+,K)) weekly and 5 mg/kg (33 nmol/kg) of antibody 2.63.1 weekly. The animals were dosed for 5 weeks with through subcutaneous injection.
Body weight was measured twice per week.

[2] = Food intake measured three consecutive days per week; type: in vivo; design: key: ns: not significant; *: p < 0.05; **: p < 0.005; ***: p < 0.001; ****: p < 0.0001; conditions: male C57Bl/6 DIO mice, 2-way ANOVA with Dunnett's analysis
Method: as §1

dulaglutide [reference compound]
Significance of Body Weight Change ([1]; D0): ns | Significance of Body Weight Change ([1]; D3): ns | Significance of Body Weight Change ([1]; D7): ns | Significance of Body Weight Change ([1]; D10): ** (p < 0.005) | Significance of Body Weight Change ([1]; D14): ** (p < 0.005) | Significance of Body Weight Change ([1]; D17): **** (p < 0.0001) | Significance of Body Weight Change ([1]; D21): *** (p < 0.001) | Significance of Body Weight Change ([1]; D31): *** (p < 0.001) | Significance of Body Weight Change ([1]; D35): *** (p < 0.001) | Significance of Body Weight Change ([1]; D-4): ns | change in body weight ([1]; five weeks after treatment, DIO mice): −1.96% | Significance of Food Intake Assay ([2]; D2): ns | Significance of Food Intake Assay ([2]; D8): ns | Significance of Food Intake Assay ([2]; D9): ns | Significance of Food Intake Assay ([2]; D10): ns | Significance of Food Intake Assay ([2]; D15): ns | Significance of Food Intake Assay ([2]; D16): ns | Significance of Food Intake Assay ([2]; D17): * (p < 0.05) | Significance of Food Intake Assay ([2]; D22): **** (p < 0.0001) | Significance of Food Intake Assay ([2]; D23): ns | Significance of Food Intake Assay ([2]; D24): ns | Significance of Food Intake Assay ([2]; D29): ns | Significance of Food Intake Assay ([2]; D30): ns | Significance of Food Intake Assay ([2]; D31): ns
